Data: PubChem BioAssay (NCI)
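A five-concentration, 48-hour dose response in 96-well plates underlies each endpoint, interpolated linearly between surrounding concentrations. The concentration for full growth arrest is given as TGI.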

Tests used:
Test in all cases: DTP human tumour cell line panel, 48 h
786-0 renal = test system: 786-0 renal
A498 renal = test system: A498 renal
A549 NSCLC = test system: A549 NSCLC
ACHN renal = test system: ACHN renal
BT-549 breast = test system: BT-549 breast
CAKI-1 renal = test system: CAKI-1 renal
CCRF-CEM leukemia = test system: CCRF-CEM leukemia
COLO 205 colon = test system: COLO 205 colon
DU-145 prostate = test system: DU-145 prostate
EKVX NSCLC = test system: EKVX NSCLC
HCC-2998 colon = test system: HCC-2998 colon
HCT-116 colon = test system: HCT-116 colon
HCT-15 colon = test system: HCT-15 colon
HOP-62 NSCLC = test system: HOP-62 NSCLC
HT29 colon = test system: HT29 colon
IGROV1 ovarian = test system: IGROV1 ovarian
K-562 leukemia = test system: K-562 leukemia
KM12 colon = test system: KM12 colon
LOX IMVI melanoma = test system: LOX IMVI melanoma
M14 melanoma = test system: M14 melanoma
MALME-3M melanoma = test system: MALME-3M melanoma
MCF7 breast = test system: MCF7 breast
MDA-MB-231 breast = test system: MDA-MB-231 breast
MDA-MB-435 = test system: MDA-MB-435
MDA-N = test system: MDA-N
MOLT-4 leukemia = test system: MOLT-4 leukemia
NCI-H226 lung = test system: NCI-H226 lung
NCI-H23 lung = test system: NCI-H23 lung
NCI-H460 lung = test system: NCI-H460 lung
NCI-H522 lung = test system: NCI-H522 lung
NCI/ADR-RES ovarian = test system: NCI/ADR-RES ovarian
OVCAR-4 ovarian = test system: OVCAR-4 ovarian
OVCAR-5 ovarian = test system: OVCAR-5 ovarian
OVCAR-8 ovarian = test system: OVCAR-8 ovarian
PC-3 prostate = test system: PC-3 prostate
RPMI-8226 leukemia = test system: RPMI-8226 leukemia
RXF 393 renal = test system: RXF 393 renal
SF-268 CNS = test system: SF-268 CNS
SF-295 CNS = test system: SF-295 CNS
SF-539 CNS = test system: SF-539 CNS
SK-MEL-2 melanoma = test system: SK-MEL-2 melanoma
SK-MEL-28 melanoma = test system: SK-MEL-28 melanoma
SK-MEL-5 melanoma = test system: SK-MEL-5 melanoma
SK-OV-3 ovarian = test system: SK-OV-3 ovarian
SN12C renal = test system: SN12C renal
SNB-19 CNS = test system: SNB-19 CNS
SNB-75 CNS = test system: SNB-75 CNS
SR leukemia = test system: SR leukemia
SW-620 colon = test system: SW-620 colon
T-47D breast = test system: T-47D breast
TK-10 renal = test system: TK-10 renal
U251 CNS = test system: U251 CNS
UACC-257 melanoma = test system: UACC-257 melanoma
UACC-62 melanoma = test system: UACC-62 melanoma
UO-31 renal = test system: UO-31 renal

N#Cc1c(-c2ccc(Cl)cc2)cc(-c2ccc(Nc3ccnc4cc(C(F)(F)F)ccc34)cc2)nc1N
TGI (786-0 renal): 38.4 µM
TGI (A498 renal): 33.8 µM
TGI (A549 NSCLC): > 100 µM
TGI (ACHN renal): 36.8 µM
TGI (BT-549 breast): > 100 µM
TGI (CAKI-1 renal): > 100 µM
TGI (CCRF-CEM leukemia): 56.5 µM
TGI (COLO 205 colon): > 100 µM
TGI (DU-145 prostate): > 100 µM
TGI (EKVX NSCLC): > 100 µM
TGI (HCC-2998 colon): > 100 µM
TGI (HCT-116 colon): 22.4 µM
TGI (HCT-15 colon): 38.4 µM
TGI (HOP-62 NSCLC): 42.9 µM
TGI (HT29 colon): 31.5 µM
TGI (IGROV1 ovarian): > 100 µM
TGI (K-562 leukemia): 46.9 µM
TGI (KM12 colon): > 100 µM
TGI (LOX IMVI melanoma): > 100 µM
TGI (M14 melanoma): 49.6 µM
TGI (MALME-3M melanoma): > 100 µM
TGI (MCF7 breast): > 100 µM
TGI (MDA-MB-231 breast): 71.2 µM
TGI (MDA-MB-435): 42.7 µM
TGI (MDA-N): > 100 µM
TGI (MOLT-4 leukemia): 37.5 µM
TGI (NCI-H226 lung): 51.1 µM
TGI (NCI-H23 lung): > 100 µM
TGI (NCI-H460 lung): > 100 µM
TGI (NCI-H522 lung): 75.9 µM
TGI (NCI/ADR-RES ovarian): > 100 µM
TGI (OVCAR-4 ovarian): 42 µM
TGI (OVCAR-5 ovarian): 88.2 µM
TGI (OVCAR-8 ovarian): > 100 µM
TGI (PC-3 prostate): > 100 µM
TGI (RPMI-8226 leukemia): > 100 µM
TGI (RXF 393 renal): 64.5 µM
TGI (SF-268 CNS): > 100 µM
TGI (SF-295 CNS): 38.8 µM
TGI (SF-539 CNS): 33.2 µM
TGI (SK-MEL-2 melanoma): 62.4 µM
TGI (SK-MEL-28 melanoma): 48.2 µM
TGI (SK-MEL-5 melanoma): > 100 µM
TGI (SK-OV-3 ovarian): > 100 µM
TGI (SN12C renal): 59 µM
TGI (SNB-19 CNS): 30.6 µM
TGI (SNB-75 CNS): 46.2 µM
TGI (SR leukemia): 16.4 µM
TGI (SW-620 colon): > 100 µM
TGI (T-47D breast): 43.2 µM
TGI (TK-10 renal): 81.4 µM
TGI (U251 CNS): 38 µM
TGI (UACC-257 melanoma): > 100 µM
TGI (UACC-62 melanoma): 37.8 µM
TGI (UO-31 renal): 34.3 µM
